The values below come from ChEMBL document CHEMBL1147270, “Discorhabdins S, T, and U, new cytotoxic pyrroloiminoquinones from a deep-water Caribbean sponge of the genus Batzella” (J Nat Prod, 2003).

What all share (assay type): functional, cell-based
Assay [1] has as its system A549. The assay can be described thus: Cytotoxicity against human A549 cells after 96 hrs by MTT assay. The conditions noted are these: A549, 96 h.
Assay [2] relates to PANC-1. Briefly: Cytotoxicity against human PANC1 cells after 96 hrs by MTT assay. Conditions: PANC-1, 96 h. In general terms: Tetrazolium dyes change colour on reduction, which living cells bring about.
In assay [3] the test system is P388. The assay can be described thus: Cytotoxicity against mouse P388 cells after 48 hrs by MTT assay. Conditions: P388, 48 h.

Bounds are passed on as bounds.

For orientation: IC50 means the concentration needed to halve the response being measured. As for `CSC1=CC(=O)C(Br)=C[C@]12C=CNC1=C2c2nccc3cn(C)c(c23)C1=O` [DISCORHABDIN T], the IC50 in assay [1] was over 5000 nM; in assay [2] it was 700 nM; in assay [3] it was over 5 µM.

Take `CSC1=CC(=O)C(Br)=C[C@]12C=CNC1=C2C2=NCCc3cn(C)c(c32)C1=O` [DISCORHABDIN U]: the values for the IC50 in assay [1], in assay [2] and in assay [3] were 170 nM, 69 nM and 0.17 µM, respectively.

On to `CSC1=CC(=O)C(Br)=C[C@]12CCNC1=C2c2nccc3cn(C)c(c23)C1=O` [DISCORHABDIN S], for which the IC50 in assay [1] is over 5000 nM; in assay [2] it was 2600 nM; in assay [3], 3.08 µM.
